In patent US20240041042A1, “1-(PYRIDYL)-5-AZINYLPYRAZOLE DERIVATIVES, AND THEIR USE FOR CONTROL OF UNDESIRED PLANT GROWTH” (Bayer Aktiengesellschaft, priority 2020, published 2024):
Read-outs that look alike come from different tables or passages of the source.

Tests used:
Assay type in all cases: in vivo
[1] = system: Alopecurus myosuroides (ALOMY); experiment: Post-emergence herbicidal action against ALOMY; conditions: visual rating about 3 weeks after treatment vs untreated controls (100% = plants have died, 0% = like control plants)
How it was run: (§1)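 Post-emergence greenhouse spray, one-leaf stage, 600 l/ha water plus 0.5% additive; WP or EC formulations; application rates 320 g/ha or lower. Visual % damage vs untreated controls at ~3 weeks.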

Lolium rigidum (LOLRI) [2] = experiment: Post-emergence herbicidal action against LOLRI
How it was run: as §1

[3] = system: Abutilon theophrasti (ABUTH); experiment: Pre-emergence herbicidal action against ABUTH; conditions: Dosage column 320 g/ha (title prints 3200 g/ha); scored visually after about 3 weeks; 100% = plants have died
How it was run: (§2)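 Greenhouse pot trial: seeds sown, soil-covered, sprayed before emergence with compound in water (0.5% additive; 600 l/ha; ≤320 g/ha). Scoring visual, ~3 weeks, 0–100% scale vs untreated.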

[4] = system: Abutilon theophrasti (ABUTH); experiment: Post-emergence herbicidal action against ABUTH; conditions: visual rating about 3 weeks after treatment vs untreated controls (100% = plants have died, 0% = like control plants)
How it was run: as §1

Setaria viridis (SETVI) [5] = experiment: Post-emergence herbicidal action against SETVI
How it was run: as §1

[6] = system: Matricaria inodora (MATIN); experiment: Post-emergence herbicidal action against MATIN
How it was run: as §1

[7] = system: Echinochloa crus-galli (ECHCG); experiment: Pre-emergence herbicidal action against ECHCG
How it was run: as §2

Viola tricolor (VIOTR) [8] = experiment: Post-emergence herbicidal action against VIOTR
How it was run: as §1

Avena fatua (AVEFA) [9] = experiment: Pre-emergence herbicidal action against AVEFA; conditions: 320 g/ha, visual scoring after about 3 weeks vs untreated controls
How it was run: as §2

Oryza sativa (ORYSA) = conditions: crop plant compatibility
How it was run: (§3)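 Test crops were treated 2 to 3 weeks after sowing, once they reached one leaf, by spraying compound in water with 0.5% additive at 600 l/ha. Visual scoring compared them with untreated controls roughly 3 weeks on, and appendices a, b and c denote different doses.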

[10] = system: Echinochloa crus-galli (ECHCG); experiment: Post-emergence herbicidal action against ECHCG
How it was run: as §1

[11] = system: Alopecurus myosuroides (ALOMY); experiment: Pre-emergence herbicidal action against ALOMY; conditions: scored visually after about 3 weeks, 100% = plants have died
How it was run: as §2

Viola tricolor (VIOTR) [12] = experiment: Pre-emergence herbicidal action against VIOTR
How it was run: as §2

[13] = system: Polygonum convolvulus (POLCO); experiment: Pre-emergence herbicidal action against POLCO
How it was run: as §2

[14] = system: Amaranthus retroflexus (AMARE); experiment: Pre-emergence herbicidal action against AMARE; conditions: visual scoring after about 3 weeks vs untreated controls
How it was run: as §2

Setaria viridis (SETVI) [15] = experiment: Pre-emergence herbicidal action against SETVI
How it was run: as §2

[16] = system: Verconica persica (VERPE); experiment: Pre-emergence herbicidal action against VERPE
How it was run: as §2

Avena fatua (AVEFA) [17] = experiment: Post-emergence herbicidal action against AVEFA; conditions: visual rating about 3 weeks after treatment
How it was run: as §1

Lolium rigidum (LOLRI) [18] = experiment: Pre-emergence herbicidal action against LOLRI
How it was run: as §2

[19] = system: Polygonum convolvulus (POLCO); experiment: Post-emergence herbicidal action against POLCO
How it was run: as §1

[20] = system: Pharbitis purpurea (PHBPU); experiment: Pre-emergence herbicidal action against PHBPU
How it was run: as §2

[21] = system: Matricaria inodora (MATIN); experiment: Pre-emergence herbicidal action against MATIN
How it was run: as §2

[22] = system: Amaranthus retroflexus (AMARE); experiment: Post-emergence herbicidal action against AMARE
How it was run: as §1

[23] = system: Verconica persica (VERPE); experiment: Post-emergence herbicidal action against VERPE
How it was run: as §1

Zea mays (ZEAMX) = conditions: 20 g/ha, ZEAMX, effect in comparison to untreated controls
How it was run: as §3

[24] = system: Pharbitis purpurea (PHBPU); experiment: Post-emergence herbicidal action against PHBPU; conditions: dosage 80 g/ha
How it was run: as §1

[25] = 80 g/ha, effect in comparison to untreated controls

| Structure (SMILES) | Post-emergence action against LOLRI in % (Lolium rigidum (LOLRI) [2]; dosage 80 g/ha) [%] | Pre-emergence action against ABUTH [3] [%] | Post-emergence action against ABUTH in % ([4]; 80 g/ha) [%] | Pre-emergence action against ECHCG in % ([7]; dosage 320 g/ha) [%] | Pre-emergence action against AVEFA in % (Avena fatua (AVEFA) [9]) [%] | Post-emergence action against ORYSA in % (Oryza sativa (ORYSA); [25]) [%] | Post-emergence action against ECHCG in % ([10]; dosage 80 g/ha) [%] | Pre-emergence action against ALOMY ([11]; 80 g/ha) [%] | Pre-emergence action against ALOMY ([11]; 320 g/ha) [%] | Pre-emergence action against VIOTR in % (Viola tricolor (VIOTR) [12]; 320 g/ha, Viola tricolor) [%] | Pre-emergence action against VIOTR in % (Viola tricolor (VIOTR) [12]; dosage 80 g/ha) [%] | Pre-emergence action against POLCO in % ([13]; dosage 80 g/ha) [%] | Pre-emergence action against POLCO in % ([13]; dosage 320 g/ha) [%] | Pre-emergence action against AMARE in % ([14]; 80 g/ha) [%] | Pre-emergence action against AMARE in % ([14]; 320 g/ha) [%] | Pre-emergence action against SETVI in % (Setaria viridis (SETVI) [15]; dosage 80 g/ha) [%] | Pre-emergence action against SETVI in % (Setaria viridis (SETVI) [15]; dosage 320 g/ha) [%] | Pre-emergence action against VERPE in % ([16]; dosage 80 g/ha) [%] | Pre-emergence action against VERPE in % ([16]; dosage 320 g/ha) [%] | Pre-emergence action against LOLRI in % (Lolium rigidum (LOLRI) [18]; dosage 80 g/ha) [%] | further results |
| --- | --- | --- | --- | --- | --- | --- | --- | --- | --- | --- | --- | --- | --- | --- | --- | --- | --- | --- | --- | --- | --- |
| COC(=O)CNC(=O)[C@@H](C)Oc1nn(-c2ccccn2)c(-c2cncc(F)c2)c1Cl [Example I-185] | 80 | 80 | 80 | 90 | 90 | 20 | 80 | 80 | 90 | 100 | 100 | 80 | 90 | 100 | 100 | 80 | 100 | 80 | 90 | 100 | Post-emergence action against ALOMY in % ([1]; 320 g/ha): 80%; Post-emergence action against LOLRI in % (Lolium rigidum (LOLRI) [2]; dosage 320 g/ha): 80%; Post-emergence action against ABUTH in % ([4]; 320 g/ha): 80%; Post-emergence action against SETVI in % (Setaria viridis (SETVI) [5]; dosage 320 g/ha): 80%; Post-emergence action against MATIN in % ([6]; dosage 320 g/ha): 80%; Pre-emergence action against ECHCG in % ([7]; dosage 80 g/ha): 80%; Post-emergence action against VIOTR in % (Viola tricolor (VIOTR) [8]; 80 g/ha): 80%; Post-emergence action against VIOTR in % (Viola tricolor (VIOTR) [8]; 320 g/ha): 80%; Post-emergence action against ECHCG in % ([10]; dosage 320 g/ha): 90%; Post-emergence action against AVEFA in % (Avena fatua (AVEFA) [17]; 320 g/ha): 80%; Pre-emergence action against LOLRI in % (Lolium rigidum (LOLRI) [18]; dosage 320 g/ha): 100%; Post-emergence action against POLCO in % ([19]; dosage 320 g/ha): 80%; Pre-emergence action against PHBPU in % ([20]; dosage 80 g/ha): 80%; Pre-emergence action against PHBPU in % ([20]; dosage 320 g/ha): 90%; Pre-emergence action against MATIN in % ([21]; dosage 80 g/ha): 80%; Pre-emergence action against MATIN in % ([21]; dosage 320 g/ha): 90%; Post-emergence action against AMARE in % ([22]; 320 g/ha, visual rating about 3 weeks after treatment): 80%; Post-emergence action against VERPE in % ([23]; 320 g/ha, VERPE): 80%; Post-emergence action against VERPE in % ([23]; dosage 80 g/ha): 80% |
| COC(=O)[C@H](C)COC(=O)COc1nn(-c2ccccn2)c(-c2ccc(F)nc2)c1Br [Example I-76] | 80 | 80 | 90 | 90 | 90 | 0 | 90 | 90 | 100 | 100 | 100 | 80 | 90 | 90 | 100 | 80 | 100 | 100 | 100 | 90 | Post-emergence action against ALOMY in % ([1]; 80 g/ha): 100%; Post-emergence action against SETVI in % (Setaria viridis (SETVI) [5]; dosage 80 g/ha): 90%; Post-emergence action against MATIN in % ([6]; dosage 80 g/ha): 80%; Post-emergence action against ORYSA in % (Oryza sativa (ORYSA); 20 g/ha, effect vs untreated controls): 0%; Post-emergence action against ZEAMX in % (crop plant compatibility) (Zea mays (ZEAMX)): 20%; Post-emergence action against PHBPU in % [24]: 90%; Post-emergence action against AVEFA in % (Avena fatua (AVEFA) [17]; 80 g/ha): 90%; Pre-emergence action against LOLRI in % (Lolium rigidum (LOLRI) [18]; dosage 320 g/ha): 100%; Post-emergence action against POLCO in % ([19]; dosage 80 g/ha): 80%; Pre-emergence action against PHBPU in % ([20]; dosage 320 g/ha): 90%; Pre-emergence action against MATIN in % ([21]; dosage 80 g/ha): 90%; Pre-emergence action against MATIN in % ([21]; dosage 320 g/ha): 90%; Post-emergence action against AMARE in % ([22]; 80 g/ha, visual rating about 3 weeks after treatment vs untreated controls (100% = plants have died, 0% = like control plants)): 80%; Post-emergence action against VERPE in % ([23]; dosage 80 g/ha): 80% |
